Read-outs that look alike come from different tables or passages of the source.
Columns and labels:
[1] = system: human skin; test: Irritancy patch test
Protocol: A sample of the ethanol extract was applied on the inner forearm of twenty (20) volunteers aged between 19-65 years using patch discs for 24 hours to determine irritancy. Visual assessments of the areas were made after 24, 48, 72 and 96 hours. Any reaction was graded as a score of 0, 0.5, 1, 2, 3, and 4, where 0 represented a no response and 4 a fiery redness, papules, oedema or bullae. The forearm of each volunteer included a positive control of sodium lauryl sulphate solution (1 g/100 mL) and a negative control of demineralised water.

[2] = target: T1, porcine pancreatic elastase (Sus scrofa, UniProt P00772); test: Elastase inhibition assay (release of p-nitroaniline from N-Succinyl-Ala-Ala-Ala-p-nitroanilide); assay type: biochemical; details: for inhibition at 5 µg/mL: 5 μg/mL; for inhibition at 10 µg/mL: 10 μg/mL; for inhibition at 25 µg/mL: 25 μg/mL; for inhibition at 50 µg/mL: 50 μg/mL; for IC50: read-out: IC50 (μg/mL) (95% Confidence Interval) (converted)
T1 construct: purchased Sigma E0258; host or cells: porcine pancreas (tissue-derived product)
Protocol: The pancreatic elastase inhibitory activity was determined in vitro by the spectrophotometric determination of the release of p-nitroaniline from a synthetic substrate N-Succinyl-Ala-Ala-Ala-p-nitroanilide.
A sample stock solution of 500 μg/mL and 1120 μg/mL was prepared from M. africana leaf extract and compound respectively. Briefly, 2.5 mg of extract and 2.24 mg of the compound was weighed and dissolved in 100 μL of methanol. The volume was then made up to 5 mL for the extract and to 2 mL for the compound with 100mM Tris-HCl buffer, pH 8.0. Subsequent dilutions for the assay were made as required.
An elastase inhibition assay was carried out largely as per the method of Bieth et al. (1974) with modifications. In brief, a pre-incubation mixture contained 100 mM of either Tris-HCl buffer (pH 8.0), vehicle buffer, positive control, or test sample of various concentrations together with 4.942 mU of elastase enzyme. The reagents were mixed and the mixture was pre-incubated at 37° C. for 15 min. Following pre-incubation, substrate (N-Succinyl-Ala-Ala-Ala-p-nitroanilide) was added to a final concentration of 0.338 mM and the solution was mixed and incubated at 37° C. for 30 min. The absorbance was measured at 405 nm in a micro-plate reader (Versamax, Molecular devices, USA). A control reaction was carried out without the test sample.
The % inhibition of the enzyme was calculated as follows:
IC50 was calculated using log-probit analysis.

[3] = Compound MA-NR-01 run, read-out: % Inhibition (Mean ± SEM)
[4] = MA ethanolic extract run, read-out: % Inhibition (Mean ± SEM)

T1 sequence (P00772 27-266): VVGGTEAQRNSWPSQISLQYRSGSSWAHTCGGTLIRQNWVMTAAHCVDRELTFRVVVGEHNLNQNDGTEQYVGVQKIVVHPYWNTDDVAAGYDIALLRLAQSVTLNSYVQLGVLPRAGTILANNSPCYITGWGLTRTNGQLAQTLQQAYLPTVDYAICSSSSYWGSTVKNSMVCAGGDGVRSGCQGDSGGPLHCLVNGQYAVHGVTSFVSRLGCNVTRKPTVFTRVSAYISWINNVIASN

CCCCCCCCCCCCOS(=O)(=O)[O-].[Na+] [Positive Control Right, sodium lauryl sulphate]
Number of subjects with reactions after 48 hours ([1]; 20 volunteers, 48 hours): 12 | Irritancy ([1]; patch test on human subjects): Irritant | Average value ([1]; patch test, 20 volunteers, results after 96 hours): 0.54 | Average score ([1]; patch test, score scale 0-4, results after 96 hours): 1.03 | Irritancy potential % (TP-NC)/(PC-NC) ([1]; relative to positive control sodium lauryl sulphate and negative control water): 100%

C[C@H]1[C@H](C)CC[C@]2(C(=O)O)CC[C@]3(C)C(=CC[C@@H]4[C@@]5(C)CC[C@H](O)C(C)(C)[C@@H]5CC[C@]43C)[C@H]12 [Ursolic Acid, ursolic acid]
inhibition at 2.5 µg/mL ([2]; 2.5 μg/mL, Compound MA-NR-01 run, read-out: % Inhibition (Mean ± SEM)): 10.6 ± 0.32% | inhibition at 5 µg/mL [2, 3]: 21.1 ± 0.53% | inhibition at 5 µg/mL [2, 4]: 13.2 ± 2.25% | inhibition at 10 µg/mL [2, 3]: 40.1 ± 1.22% | inhibition at 10 µg/mL [2, 4]: 24.1 ± 4.5% | inhibition at 25 µg/mL [2, 3]: 58.85 ± 0.17% | inhibition at 25 µg/mL [2, 4]: 41.4 ± 0.92% | inhibition at 50 µg/mL [2, 3]: 62.1 ± 1.18% | inhibition at 50 µg/mL [2, 4]: 53.2 ± 0.56% | IC50 ([2]; run of Compound MA-NR-01 (right half of Table 1)): 45.5 µM | IC50 ([2]; run of MA ethanolic extract (left half of Table 1)): 88.9 µM

Myrsinoside B [MA-NR-01]
% Inhibition (Mean ± SEM) ([2]; 7.8125 μg/mL, Compound MA-NR-01 run): 11.79 ± 4.35% | % Inhibition (Mean ± SEM) ([2]; 15.625 μg/mL, Compound MA-NR-01 run): 4.79 ± 1.66% | % Inhibition (Mean ± SEM) ([2]; 31.25 μg/mL, Compound MA-NR-01 run): 6.76 ± 4.57% | % Inhibition (Mean ± SEM) ([2]; 62.5 μg/mL, Compound MA-NR-01 run): 5.73 ± 1.04% | % Inhibition (Mean ± SEM) ([2]; 125 μg/mL, Compound MA-NR-01 run): 13.00±1.04% | % Inhibition (Mean ± SEM) ([2]; 250 μg/mL, Compound MA-NR-01 run): 25.75 ± 1.46% | % Inhibition (Mean ± SEM) ([2]; 500 μg/mL, Compound MA-NR-01 run): 31.02 ± 1.22%

— US20190290574A1, “TOPICAL SKIN CARE COMPOSITIONS COMPRISING MYRSINE AFRICANA EXTRACTS” (University of Pretoria, priority 2015, published 2019)
